Source: PMC12281142, “A potent phenylalkylamine disrupts mycobacterial membrane bioenergetics and augments bactericidal activity of bedaquiline” (iScience, 2025)
≈ marks a conversion by molar mass, not a printed value. Where two headings read alike, the source gives them in different places.

What was measured:
[1] = test system: M. bovis BCG; assay: microbe, parasite or virus in culture; format: cell-based, Mycobacterium bovis BCG
[2] = test system: Mab bolletii CCUG 50184-T; assay: MIC against Mab bolletii CCUG 50184-T; format: cell-based, Mycobacterium abscessus subsp. bolletii; settings: for MIC50 Mab bolletii CCUG 50184-T: 3 days
[3] = test system: Mab massiliense CCUG 48898-T; assay: MIC against Mab massiliense CCUG 48898-T; format: cell-based, Mycobacterium abscessus subsp. massiliense; settings: for MIC50 Mab massiliense CCUG 48898-T: 3 days
[4] = test system: Mab abscessus ATCC 19977; assay: MIC against Mab abscessus ATCC 19977; format: cell-based, Mycobacterium abscessus subsp. abscessus; settings: for MIC90: read-out: MIC90 Mab abscessus ATCC 19977; for MIC50 Mab abscessus ATCC 19977: 3 days
[5] = test system: Mtb H37Rv; assay: MIC by broth microdilution against Mtb H37Rv; format: cell-based, Mycobacterium tuberculosis; settings: incubation 5 days; for MIC50 Mtb H37Rv: first value of cell MIC50/MIC90
[6] = test system: Vero E6; assay: Cytotoxicity in Vero E6 cells; format: cell-based, African green monkey; settings: 48 h, growth suppressed by 50% vs untreated
Description: (§1) To each well in a 96-well plate, 50,000 cells in 100 μL media were seeded. Vero E6 and HepG2 cells were incubated overnight in DMEM for cell adherence at 37°C and 5% CO2. The media was removed from the wells and 100 μL solution made up of fresh DMEM media (99 μL) and the test compound (1 μL from a DMSO stock solution that was […] more concentrated than the final concentration in the well) was then added to each well. DMSO content of each well was consistently kept at 0.5 %v/v. Treated plates were incubated for 48 h (5% CO2, 37°C), after which 10 μL of Celltitre 96 Aqueous One Solution was added to each well, without removal of media, and incubated for a further 3 h. Subsequently, absorbance readings were taken at 490 nm on a Tecan GENios Microplate Reader.
(§2) Cell viability was determined from the expression: Cellviability(%)={[Absorbance(cells+cpd)−Absorbance(cpd)]/[Absorbance(cells+vc)−Absorbance(vc)]}×100% where Absorbance (cells + cpd) = absorbance of wells containing cells and test compound in vehicle (media +0.5% DMSO); Absorbance (cpd) = absorbance of wells containing test compound in vehicle without cells (compound control); Absorbance (cells + vc) = absorbance of wells containing cells in vehicle (vc) only (untreated cells); Absorbance (vc) = absorbance of wells containing vehicle without cells (vehicle control). The percentage viability readings were plotted against log(concentration) on GraphPad Prism (Version 7.0, San Diego, CA) to give a sigmoidal curve, from which IC50, defined as the concentration of the compound that reduced cell viability by 50%, was obtained. At least 3 separate determinations were carried out.

[7] = test system: HepG2; assay: Cytotoxicity in HepG2 cells; format: cell-based, human; settings: 48 h, growth suppressed by 50% vs untreated
Description: as §1, §2

[8] = test system: M. bovis BCG; format: cell-based, Mycobacterium bovis BCG
[9] = 7H9 medium (first value of cell)
[10] = CA-MHB medium (second value of cell)

CC(C)C(C#N)(CCCN(C)CCc1ccc(Cl)c(Cl)c1)c1ccc(Cl)c(Cl)c1 (stereo not shown) [PhA66]
MIC50 [1]: 56 µM (≈ 26.4 µg/mL)

carbonyl cyanide m-chlorophenyl hydrazine [CCCP, reference compound]
MIC90 [1]: 50 µM
MIC90 BCG [1]: 10 µg/mL

COc1ccc(CCN(C)CCCCCCCCCCCCC(C#N)(c2ccc(OC)c(OC)c2)C(C)C)cc1OC (stereo not shown) [PhA10]
MIC50 [1]: 18 µM (≈ 10.5 µg/mL)
MIC90 [1]: 32 µM (≈ 18.6 µg/mL)
MIC90 (Table S1) [1]: 32 µM (≈ 18.6 µg/mL)

COc1ccc(CCN(C)CCCC(C#N)(CC=C(C)CCC=C(C)C)c2ccc(Cl)c(Cl)c2)cc1OC (stereo not shown) [PhA13]
MIC90 ([2]; 7H9 broth (first value)): > 250 µM
MIC90 ([2]; camH broth (second value)): > 250 µM
MIC50 [1]: 12 µM (≈ 6.69 µg/mL)
MIC50 BCG With Glycerol [1]: 12 µM (≈ 6.69 µg/mL)
MIC50 BCG Without Glycerol [1]: 30 µM (≈ 16.7 µg/mL)
MIC90 [1]: 23 µM (≈ 12.8 µg/mL)
MIC90 (Table S1) [1]: 23 µM (≈ 12.8 µg/mL)
MIC90 BCG [1]: 13 µg/mL (≈ 23.3 µM)
MIC90 ([3]; 7H9 broth (first value)): > 250 µM
MIC50 Mab massiliense CCUG 48898-T [3, 9]: > 250 µM
MIC50 Mab massiliense CCUG 48898-T [3, 10]: 23 µM (≈ 12.8 µg/mL)
MIC90 ([3]; camH broth (second value)): > 250 µM
MIC90 ([4]; 7H9 broth (first value)): > 250 µM
MIC50 Mab abscessus ATCC 19977 [4, 9]: >250/250 uM
MIC50 Mab abscessus ATCC 19977 [4, 10]: >250/250 uM
MIC90 ([4]; camH broth (second value)): > 250 µM
MIC50 Mtb H37Rv [5]: 21 µM (≈ 11.7 µg/mL)
MIC90 ([5]; second value of cell MIC50/MIC90, read-out: MIC90 Mtb H37Rv): 45 µM (≈ 25.1 µg/mL)
IC50 [6]: 60 µM
IC50 [7]: 42 µM

COc1ccc(CCN(C)CCCC(C#N)(Cc2cccc(Cl)c2)c2ccc(OC)c(OC)c2)cc1OC (stereo not shown) [PhA6]
MIC50 [1]: 17 µM (≈ 9.13 µg/mL)
MIC90 [1]: 45 µM (≈ 24.2 µg/mL)
MIC90 (Table S1) [1]: 45 µM (≈ 24.2 µg/mL)

COc1ccc(CCN(C)CCCC(C#N)(c2ccc(OC)c(OC)c2)C2CCCCCCC2)cc1OC (stereo not shown) [PhA4]
MIC50 [1]: 23 µM (≈ 12 µg/mL)
MIC90 [1]: 44 µM (≈ 23 µg/mL)
MIC90 (Table S1) [1]: 44 µM (≈ 23 µg/mL)

COc1ccc(CCN(C)CCCCCCCCCCC(C#N)(c2ccc(OC)c(OC)c2)C(C)C)cc1OC (stereo not shown) [PhA9]
MIC90 ([2]; 7H9 broth (first value)): 200 µM (≈ 111 µg/mL)
MIC50 Mab bolletii CCUG 50184-T [2, 9]: 103/– ^e uM
MIC50 [1]: 11 µM (≈ 6.08 µg/mL)
MIC50 BCG With Glycerol [1]: 11 µM (≈ 6.08 µg/mL)
MIC50 BCG Without Glycerol [1]: 22 µM (≈ 12.2 µg/mL)
MIC90 [1]: 22 µM (≈ 12.2 µg/mL)
MIC90 (Table S1) [1]: 22 µM (≈ 12.2 µg/mL)
MIC90 BCG [1]: 12 µg/mL (≈ 21.7 µM)
MIC90 ([3]; 7H9 broth (first value)): > 200 µM
MIC50 Mab massiliense CCUG 48898-T [3, 9]: 123/– ^e uM
MBC99.9 (10^3-fold kill) [8]: 2 x MIC90
MIC90 ([4]; 7H9 broth (first value)): 190 µM (≈ 105 µg/mL)
MIC50 Mab abscessus ATCC 19977 [4, 9]: 74/– ^e uM
IC50 [6]: 15 µM
IC50 [7]: 15 µM

COc1ccc(C(C#N)(CCCN(C)CCc2ccc(Cl)c(Cl)c2)C(C)C)cc1OC (stereo not shown) [PhA8]
MIC50 [1]: 26 µM (≈ 12 µg/mL)
MIC90 [1]: 45 µM (≈ 20.9 µg/mL)
MIC90 (Table S1) [1]: 45 µM (≈ 20.9 µg/mL)

COc1ccc(CCN(C)CCCC(C#N)(c2ccc(Cl)c(Cl)c2)C(C)C)cc1OC (stereo not shown) [PhA7]
MIC50 [1]: 27 µM (≈ 12.5 µg/mL)
MIC90 [1]: 47 µM (≈ 21.8 µg/mL)
MIC90 (Table S1) [1]: 47 µM (≈ 21.8 µg/mL)

COc1ccc(CCN(C)CCCC(C#N)(CCC2CCCCC2)c2ccc(Cl)c(Cl)c2)cc1OC (stereo not shown) [PhA11]
MIC90 ([2]; 7H9 broth (first value)): > 250 µM
MIC50 Mab bolletii CCUG 50184-T [2, 9]: > 250 µM
MIC50 Mab bolletii CCUG 50184-T [2, 10]: 160 µM (≈ 85.1 µg/mL)
MIC90 ([2]; camH broth (second value)): > 250 µM
MIC50 [1]: 14 µM (≈ 7.44 µg/mL)
MIC50 BCG Without Glycerol [1]: 46 µM (≈ 24.5 µg/mL)
MIC90 [1]: 25 µM (≈ 13.3 µg/mL)
MIC90 (Table S1) [1]: 25 µM (≈ 13.3 µg/mL)
MIC90 BCG [1]: 13 µg/mL (≈ 24.5 µM)
MIC90 ([3]; 7H9 broth (first value)): > 250 µM
MIC50 Mab massiliense CCUG 48898-T [3, 9]: > 250 µM
MIC50 Mab massiliense CCUG 48898-T [3, 10]: 21 µM (≈ 11.2 µg/mL)
MIC90 ([3]; camH broth (second value)): > 250 µM
MIC90 ([4]; 7H9 broth (first value)): > 250 µM
MIC50 Mab abscessus ATCC 19977 [4, 9]: > 250 µM
MIC50 Mab abscessus ATCC 19977 [4, 10]: 175 µM (≈ 93 µg/mL)
MIC90 ([4]; camH broth (second value)): > 250 µM
MIC50 Mtb H37Rv [5]: 19/40 μM
MIC90 Mtb H37Rv [5]: 19/40 μM
IC50 [6]: 57 µM
IC50 [7]: 44 µM

COc1ccc(C(C#N)(CCCN2CCN(c3cccc(O)c3)CC2)C(C)C)cc1OC (stereo not shown) [PhA21]
MIC90 (Table S1) [1]: > 250 µM

COc1ccc(CCN(C)CCCC(C#N)(c2cc(OC)c(OC)c(OC)c2)C(C)C)cc1OC (stereo not shown) [PhA52, gallopamil, reference compound]
MIC90 (Table S1) ([1]; M. bovis BCG, broth dilution): > 250 µM
